This passage reports Kd results from ChEMBL document CHEMBL3991601, “The target landscape of clinical kinase drugs” (Science, 2017).

The target of assay [1] is Mitogen-activated protein kinase kinase kinase 4 (Homo sapiens, UniProt Q9Y6R4).
Assay [2] concerns the target Dual specificity mitogen-activated protein kinase kinase 2 (Homo sapiens, UniProt P36507).
For assay [3], the target named is Cyclin-dependent kinase 2 (Homo sapiens, UniProt P24941).
A further assay has as its target T1, Ephrin type-B receptor 4 (Homo sapiens, UniProt P54760).
T1 sequence (P54760 whole entry): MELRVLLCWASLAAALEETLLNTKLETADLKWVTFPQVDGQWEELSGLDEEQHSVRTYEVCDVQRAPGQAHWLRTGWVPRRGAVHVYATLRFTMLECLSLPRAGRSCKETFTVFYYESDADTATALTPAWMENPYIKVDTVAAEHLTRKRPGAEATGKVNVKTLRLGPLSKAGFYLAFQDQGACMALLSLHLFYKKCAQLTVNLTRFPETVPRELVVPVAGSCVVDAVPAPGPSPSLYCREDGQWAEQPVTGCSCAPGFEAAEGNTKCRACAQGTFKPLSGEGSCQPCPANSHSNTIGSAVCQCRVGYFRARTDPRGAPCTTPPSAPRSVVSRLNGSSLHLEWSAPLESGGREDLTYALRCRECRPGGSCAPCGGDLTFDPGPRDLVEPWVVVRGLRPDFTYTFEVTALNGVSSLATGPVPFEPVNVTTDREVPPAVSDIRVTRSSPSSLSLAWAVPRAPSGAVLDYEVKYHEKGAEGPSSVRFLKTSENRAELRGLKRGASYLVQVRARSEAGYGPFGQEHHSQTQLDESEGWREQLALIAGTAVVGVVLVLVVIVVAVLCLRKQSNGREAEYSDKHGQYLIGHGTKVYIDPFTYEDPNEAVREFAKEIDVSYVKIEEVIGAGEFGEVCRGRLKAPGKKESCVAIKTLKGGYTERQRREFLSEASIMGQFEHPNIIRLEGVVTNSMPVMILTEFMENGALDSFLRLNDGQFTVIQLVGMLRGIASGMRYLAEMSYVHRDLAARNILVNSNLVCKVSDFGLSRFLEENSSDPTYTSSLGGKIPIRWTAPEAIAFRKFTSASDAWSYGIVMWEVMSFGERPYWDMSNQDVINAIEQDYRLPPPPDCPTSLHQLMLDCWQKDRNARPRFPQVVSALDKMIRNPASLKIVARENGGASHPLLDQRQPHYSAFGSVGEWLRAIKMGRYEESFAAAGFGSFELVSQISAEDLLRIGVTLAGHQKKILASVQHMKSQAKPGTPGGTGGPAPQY

Assay [4] concerns the target T2, Serine/threonine-protein kinase 4 (Homo sapiens, UniProt Q13043).
T2 sequence (Q13043 whole entry): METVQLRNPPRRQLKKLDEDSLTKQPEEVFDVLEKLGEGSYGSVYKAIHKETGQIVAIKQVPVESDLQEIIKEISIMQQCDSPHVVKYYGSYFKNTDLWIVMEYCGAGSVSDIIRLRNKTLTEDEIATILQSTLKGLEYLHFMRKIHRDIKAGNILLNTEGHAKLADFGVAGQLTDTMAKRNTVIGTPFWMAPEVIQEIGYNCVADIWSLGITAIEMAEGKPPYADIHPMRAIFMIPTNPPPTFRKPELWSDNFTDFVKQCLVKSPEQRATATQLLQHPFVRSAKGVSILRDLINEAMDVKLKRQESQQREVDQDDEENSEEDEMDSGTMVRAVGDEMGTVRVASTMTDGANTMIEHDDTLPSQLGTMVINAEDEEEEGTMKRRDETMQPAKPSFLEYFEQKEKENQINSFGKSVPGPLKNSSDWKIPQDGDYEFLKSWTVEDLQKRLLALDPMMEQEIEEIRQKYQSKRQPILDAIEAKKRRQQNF

Assay [5] concerns the target cAMP-dependent protein kinase catalytic subunit alpha (Homo sapiens, UniProt P17612).
Assay [6] has as its target T3, Serine/threonine-protein kinase D2 (Homo sapiens, UniProt Q9BZL6).
T3 sequence (Q9BZL6 whole entry): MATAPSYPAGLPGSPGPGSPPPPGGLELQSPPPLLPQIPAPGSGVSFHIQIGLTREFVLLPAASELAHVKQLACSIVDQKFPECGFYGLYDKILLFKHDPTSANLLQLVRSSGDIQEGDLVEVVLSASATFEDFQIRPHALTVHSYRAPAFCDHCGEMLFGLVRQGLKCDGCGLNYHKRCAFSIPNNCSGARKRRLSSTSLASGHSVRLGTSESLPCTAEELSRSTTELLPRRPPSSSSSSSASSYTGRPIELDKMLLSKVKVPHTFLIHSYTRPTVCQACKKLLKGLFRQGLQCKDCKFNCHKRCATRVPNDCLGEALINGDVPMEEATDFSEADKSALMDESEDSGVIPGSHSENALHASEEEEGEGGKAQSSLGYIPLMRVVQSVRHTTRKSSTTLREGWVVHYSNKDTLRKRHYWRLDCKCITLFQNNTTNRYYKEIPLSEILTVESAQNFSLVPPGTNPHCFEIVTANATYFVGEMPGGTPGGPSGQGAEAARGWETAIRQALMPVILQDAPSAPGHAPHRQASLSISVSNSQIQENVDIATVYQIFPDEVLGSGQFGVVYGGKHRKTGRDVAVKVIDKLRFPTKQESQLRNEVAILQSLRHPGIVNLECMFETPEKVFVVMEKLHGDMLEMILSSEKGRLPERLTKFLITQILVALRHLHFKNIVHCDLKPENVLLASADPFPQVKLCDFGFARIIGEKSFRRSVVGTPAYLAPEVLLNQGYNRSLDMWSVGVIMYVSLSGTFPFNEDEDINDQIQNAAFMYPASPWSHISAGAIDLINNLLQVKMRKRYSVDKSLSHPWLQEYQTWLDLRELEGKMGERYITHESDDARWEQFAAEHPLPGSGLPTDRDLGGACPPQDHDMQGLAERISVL

The target of assay [7] is Protein-tyrosine kinase 6 (Homo sapiens, UniProt Q13882).
Sequence of Protein-tyrosine kinase 6 (Q13882 whole entry): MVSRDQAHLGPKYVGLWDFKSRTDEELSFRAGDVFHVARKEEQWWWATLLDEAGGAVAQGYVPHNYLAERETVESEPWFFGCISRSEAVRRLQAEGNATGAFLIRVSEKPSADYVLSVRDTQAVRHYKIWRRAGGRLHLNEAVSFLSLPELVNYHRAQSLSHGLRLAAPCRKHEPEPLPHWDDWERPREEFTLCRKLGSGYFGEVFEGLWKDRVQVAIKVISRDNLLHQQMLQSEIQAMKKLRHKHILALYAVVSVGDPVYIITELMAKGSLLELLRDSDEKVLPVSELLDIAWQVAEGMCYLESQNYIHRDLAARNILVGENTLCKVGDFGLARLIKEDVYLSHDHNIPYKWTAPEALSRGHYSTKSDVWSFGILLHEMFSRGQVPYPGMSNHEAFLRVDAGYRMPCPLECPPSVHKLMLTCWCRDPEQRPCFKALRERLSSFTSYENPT

Active and inactive are the calls of the source. No stated cut-off is given here; in the data, actives have a measured Kd and inactives only a lower limit.

Sequence of Dual specificity mitogen-activated protein kinase kinase 2 (P36507 whole entry): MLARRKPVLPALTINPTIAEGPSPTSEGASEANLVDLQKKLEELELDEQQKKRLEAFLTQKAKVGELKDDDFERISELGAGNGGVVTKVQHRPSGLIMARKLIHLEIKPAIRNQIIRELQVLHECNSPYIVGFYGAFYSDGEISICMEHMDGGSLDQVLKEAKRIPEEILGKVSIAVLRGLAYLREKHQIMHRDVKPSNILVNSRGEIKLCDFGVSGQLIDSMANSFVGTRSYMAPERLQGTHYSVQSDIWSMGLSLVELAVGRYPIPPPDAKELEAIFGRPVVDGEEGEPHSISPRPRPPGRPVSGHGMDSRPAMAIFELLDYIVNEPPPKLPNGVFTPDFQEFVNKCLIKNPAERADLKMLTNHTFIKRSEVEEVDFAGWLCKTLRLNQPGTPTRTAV
Sequence of Mitogen-activated protein kinase kinase kinase 4 (Q9Y6R4 whole entry): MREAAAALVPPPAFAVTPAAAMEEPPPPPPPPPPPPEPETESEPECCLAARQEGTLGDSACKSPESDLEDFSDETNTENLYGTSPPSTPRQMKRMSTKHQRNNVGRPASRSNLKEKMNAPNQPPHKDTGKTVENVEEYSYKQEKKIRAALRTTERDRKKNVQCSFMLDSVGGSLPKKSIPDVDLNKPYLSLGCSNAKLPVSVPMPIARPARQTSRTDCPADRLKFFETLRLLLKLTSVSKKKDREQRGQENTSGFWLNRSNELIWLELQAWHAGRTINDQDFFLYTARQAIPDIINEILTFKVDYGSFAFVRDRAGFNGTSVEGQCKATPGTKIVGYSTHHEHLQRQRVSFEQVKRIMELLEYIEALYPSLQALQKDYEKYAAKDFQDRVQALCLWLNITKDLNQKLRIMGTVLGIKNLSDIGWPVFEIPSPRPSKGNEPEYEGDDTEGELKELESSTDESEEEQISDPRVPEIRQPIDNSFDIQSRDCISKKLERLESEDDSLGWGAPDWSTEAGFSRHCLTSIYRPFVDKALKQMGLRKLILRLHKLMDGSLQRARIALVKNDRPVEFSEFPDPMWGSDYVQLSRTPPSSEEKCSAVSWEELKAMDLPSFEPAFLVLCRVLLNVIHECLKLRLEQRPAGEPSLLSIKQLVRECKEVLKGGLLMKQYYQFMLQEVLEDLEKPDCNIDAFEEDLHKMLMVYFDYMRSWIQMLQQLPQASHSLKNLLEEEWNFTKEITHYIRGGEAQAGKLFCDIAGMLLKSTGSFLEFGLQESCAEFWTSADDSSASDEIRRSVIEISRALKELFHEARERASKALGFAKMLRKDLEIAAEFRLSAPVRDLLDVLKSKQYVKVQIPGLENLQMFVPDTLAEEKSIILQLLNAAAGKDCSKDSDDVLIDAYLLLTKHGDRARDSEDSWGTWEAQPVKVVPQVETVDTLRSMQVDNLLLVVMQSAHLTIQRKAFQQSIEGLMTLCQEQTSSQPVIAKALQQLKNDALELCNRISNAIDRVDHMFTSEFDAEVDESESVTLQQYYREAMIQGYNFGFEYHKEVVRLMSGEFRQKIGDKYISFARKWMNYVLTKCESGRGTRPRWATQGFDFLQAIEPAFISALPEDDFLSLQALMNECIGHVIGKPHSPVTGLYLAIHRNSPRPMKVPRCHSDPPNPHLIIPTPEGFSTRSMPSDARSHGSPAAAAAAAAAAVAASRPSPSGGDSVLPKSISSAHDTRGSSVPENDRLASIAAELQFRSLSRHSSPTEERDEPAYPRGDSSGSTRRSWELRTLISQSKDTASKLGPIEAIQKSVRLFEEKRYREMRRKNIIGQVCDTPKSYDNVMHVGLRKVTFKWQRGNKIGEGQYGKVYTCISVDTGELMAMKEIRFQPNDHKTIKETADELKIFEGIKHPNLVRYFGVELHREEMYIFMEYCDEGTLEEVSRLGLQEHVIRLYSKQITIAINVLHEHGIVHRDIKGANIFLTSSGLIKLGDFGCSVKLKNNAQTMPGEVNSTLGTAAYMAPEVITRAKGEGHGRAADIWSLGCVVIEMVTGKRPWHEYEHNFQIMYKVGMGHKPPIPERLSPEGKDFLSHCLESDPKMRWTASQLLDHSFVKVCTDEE

Consider `C[C@@H](Oc1cc(C(=O)Nc2ccc(C(=O)N3CCN(C)CC3)cc2)nnc1N)c1c(Cl)ccc(F)c1Cl`, for which the Kd (in assay [1]; in assay [2]; in assay [3]; on Ephrin type-B receptor 4; in assay [4]; in assay [5]) was > 30 µM (inactive) in each case. Also, the Kd in assay [6] and in assay [7] was > 30 µM (inactive) in each case.
For `C[C@H]1CNCCCN1S(=O)(=O)c1cccc2cncc(F)c12`, the Kd (in assay [1]; in assay [2]; in assay [3]; on Ephrin type-B receptor 4; in assay [4]; in assay [5]) was > 30 µM (inactive) each time. In addition, the Kd in assay [6] is 3.7 µM (active); in assay [7], > 30 µM (inactive).
Regarding `CC(=O)c1cnc2ccc(-c3cc(Cl)c(O)c(Cl)c3)nc2c1N[C@H]1CC[C@H](CN(C)C)CC1`, the Kd is > 30 µM (inactive) in assay [1]; > 30 µM (inactive) in assay [2]; 0.091 µM (active) in assay [3]; 0.143 µM (active) on Ephrin type-B receptor 4; 0.067 µM (active) in assay [4]; > 30 µM (inactive) in assay [5]. Also, the Kd was 0.069 µM (active) in assay [6] and > 30 µM (inactive) in assay [7].
`CCNC(=O)C#Cc1ccc2c(c1)NC(=O)/C2=C(\Nc1ccc(CN(C)C)cc1)c1ccccc1`: the Kd was > 30 µM (inactive) in assay [1]; > 30 µM (inactive) in assay [3]; > 30 µM (inactive) at Ephrin type-B receptor 4; 1.26 µM (active) in assay [4]; > 30 µM (inactive) in assay [5]; > 30 µM (inactive) in assay [6]. Moreover, the Kd in assay [7] is > 30 µM (inactive).
Regarding `Nc1ncnc2c1c(-c1cccc(OCc3ccccc3)c1)cn2[C@H]1C[C@@H](CN2CCC2)C1` [AEW-541], the Kd in assay [1] is > 30 µM (inactive); in assay [2] it was 5.76 µM (active); in assay [3] it was > 30 µM (inactive); at Ephrin type-B receptor 4 it was > 30 µM (inactive); in assay [4] it was 3.77 µM (active); in assay [5], > 30 µM (inactive). Also, the values for the Kd in assay [6] and in assay [7] were > 30 µM (inactive) and 1.94 µM (active), respectively.
For the molecule `COc1cc(Nc2ncc3c(n2)-c2ccc(Cl)cc2C(c2c(F)cccc2OC)=NC3)ccc1C(=O)O` [ALISERTIB], the Kd in assay [1], in assay [4] and in assay [5] was > 30 µM (inactive) in each case.
Regarding `Cc1nc(NC(=O)N2CCC[C@H]2C(N)=O)sc1-c1ccnc(C(C)(C)C(F)(F)F)c1` [ALPELISIB], the Kd (in assay [1]; in assay [2]; in assay [3]; on Ephrin type-B receptor 4; in assay [4]; in assay [5]) was > 30 µM (inactive) in each case. The Kd in assay [6] and in assay [7] was > 30 µM (inactive) in each case.
For `C=CC(=O)Nc1cc2c(Nc3ccc(F)c(Cl)c3)ncnc2cc1C#CC(C)(C)N1CCN(C)CC1` [AV-412 FREE BASE], the Kd (in assay [1]; in assay [2]; in assay [3]; at Ephrin type-B receptor 4; in assay [4]; in assay [5]) was > 30 µM (inactive) in each case. The Kd in assay [6] and in assay [7] was > 30 µM (inactive) throughout.
As for `Cn1cnc2c(F)c(Nc3ccc(Br)cc3F)c(C(=O)NOCCO)cc21` [BINIMETINIB], the Kd in assay [1] was > 30 µM (inactive); in assay [2], 0.036 µM (active); in assay [3], > 30 µM (inactive); at Ephrin type-B receptor 4, > 30 µM (inactive); in assay [4], > 30 µM (inactive); in assay [5] it was > 30 µM (inactive). The Kd in assay [6] and in assay [7] was > 30 µM (inactive) throughout.
Turning to `CCn1c(C(=O)N(C2CC2)C2CC2)cc2c3c(ncn3C)c(Nc3cc(C)n(C)n3)nc21` [BMS-911543], the Kd (in assay [1]; in assay [2]; in assay [3]; on Ephrin type-B receptor 4; in assay [4]; in assay [5]) was > 30 µM (inactive) each time. The Kd in assay [6] and in assay [7] was > 30 µM (inactive) in each case.
Turning to `Cc1cc(Nc2ncc(Cl)c(Nc3ccccc3S(=O)(=O)C(C)C)n2)c(OC(C)C)cc1C1CCNCC1` [CERITINIB], the Kd (in assay [1]; in assay [2]; in assay [3]; on Ephrin type-B receptor 4; in assay [4]; in assay [5]) was > 30 µM (inactive) in each case. In addition, the Kd in assay [6] and in assay [7] was > 30 µM (inactive) in each case.
As to `Cc1nc2cc(-n3ncc(C(=O)c4cc5ccccc5[nH]4)c3N)ccc2[nH]1` [FGFR INHIBITOR DEBIO 1347], the Kd (in assay [1]; in assay [2]; on Ephrin type-B receptor 4; in assay [4]; in assay [5]; in assay [6]) was > 30 µM (inactive) in each case. In addition, the Kd in assay [7] is > 30 µM (inactive).
Turning to `Cc1nc(Nc2n[nH]c3c2CN(C(=O)N[C@H](CN(C)C)c2ccccc2)C3(C)C)c2sccc2n1` [PF-03758309], the Kd is > 30 µM (inactive) in assay [1]; > 30 µM (inactive) in assay [2]; > 30 µM (inactive) on Ephrin type-B receptor 4; 4.32 µM (active) in assay [4]; 0.935 µM (active) in assay [5]; > 30 µM (inactive) in assay [7].
Regarding `CC(C)c1cc(CNc2nc(Nc3cc(C4CC4)[nH]n3)cc(N3CCN(C)CC3)n2)on1` [XL-228], the Kd was > 30 µM (inactive) in assay [1]; 4.21 µM in assay [2]; > 30 µM (inactive) in assay [3]; 0.292 µM (active) on Ephrin type-B receptor 4; > 30 µM (inactive) in assay [5]; 1.37 µM (active) in assay [6]. For the same molecule, the Kd in assay [7] is > 30 µM (inactive).
